According to patent US9169259B2, “Imidazopyridazine compounds” (Hoffmann-La Roche Inc., priority 2011, dated 2015):

Biological target: recombinant human SYK360-635 (Homo sapiens (Human), UniProt P43405)
Assay: SYK kinase assay (33P ATP filtration, IC50 of SYK inhibition)
Assay type: biochemical
Settings: truncated SYK aa 360-635 0.5 nM, ATP 20 μM, peptide 5 μM, 30° C. 15 min; read-out: ENZYME_FILTRATION_IC50
Procedure: Determination of IC50 of Spleen Tyrosine Kinase (SYK) Inhibition:
SYK kinase assay is a standard kinase assay adapted to a 96 well plate format. This assay is performed in 96-well format for IC50 determination with […] which represented 10 half log dilutions and a 40 μL reaction volume. The assay measures the incorporation of radiolabeled ^33P γATP into an N-terminally biotinylated peptide substrate, derived from naturally occurring phosphoacceptor consensus sequence (Biotin-11aa DY*E). Phosphorylated products were detected upon termination of reactions with EDTA and the addition of Streptavidin coated beads.
Assay plates: 96-well MultiScreen 0.65 um filter plates (Millipore Cat. No.: MADVNOB10)
final concentration: 50 mM HEPES pH7.5
BSA: Bovine Serum Albumin Fraction V, fatty acid free (Roche Diagnostics GmbH, Cat. No. 9100221) diluted to a final concentration of 0.1%
Assay Dilution Buffer (ADB): 50 mM HEPES, 0.1 mM EGTA, 0.1 mM Na Vanadate, 0.1 mM β-glycerophosphate, 10 mM MgCl2, 1 mM DTT, 0.1% BSA, pH 7.5
Bead wash buffer: 10 g/L PBS (Phosphate buffered saline) with 2M NaCl+1% phosphoric acid.
DMSO and the mixture was incubated for 10 min at RT.
The kinase reaction was initiated by the addition of 10 μL 4× substrate cocktail containing the DYE peptide substrate [0 or 5 μM], ATP [20 μM] and ^33PγATP [2 μCi/r×n]. After incubation at 30° C. for 15 min, the reaction was terminated by the transfer of 25 μL of the reaction sample to a 96 well 0.65 μm Millipore MADVNOB membrane/plate containing 200 μL 5 mM EDTA and 20% Streptavidine coated beads in PBS.
After the last wash membrane/plates were transferred to an adaptor plate, heat dried for 15 min at 60° C., and 50 μL scintillation cocktail was added to each well and 4 h later the amount of radioactivity was counted in a top counter.

| Structure (SMILES) | IC50 |
| --- | --- |
| CC(C)(C)C1CCN(c2cccc(Nc3cc(-c4cccc(C(=O)O)c4)nn4ccnc34)n2)C1 (stereo not shown) [Example I-66, 3-{8-[6-(3-tert-Butyl-pyrrolidin-1-yl)-pyridin-2-ylamino]-imidazo[1,2-b]pyridazin-6-yl}-benzoic acid] | 0.696 µM |
| FC(F)(F)c1cccc(Nc2cc(-c3ccccc3)nn3ccnc23)n1 [Example I-1, (6-Phenyl-imidazo[1,2-b]pyridazin-8-yl)-(6-trifluoromethyl-pyridin-2-yl)-amine] | > 10 µM |
| COc1ccc(Nc2cc(N3CCCC(NC(=O)c4ccc(C(=O)O)cc4)C3)nn3ccnc23)nc1OC (stereo not shown) [Example I-72, N-{1-[8-(5,6-Dimethoxy-pyridin-2-ylamino)-imidazo[1,2-b]pyridazin-6-yl]-piperidin-3-yl}-terephthalamic acid] | 0.0022 µM |
| CC1CCCN1c1cccc(Nc2cc(-c3cccc(C(=O)Nc4ccc(C(=O)O)cc4)c3)nn3ccnc23)n1 (stereo not shown) [Example I-10, 4-(3-{8-[6-(2-Methyl-pyrrolidin-1-yl)-pyridin-2-ylamino]-imidazo[1,2-b]pyridazin-6-yl}-benzoylamino)-benzoic acid] | 0.00165 µM |
| CC(=O)N1CCc2ccc(-c3cc(Nc4cccc(N5CCCC5C)n4)c4nccn4n3)cc2C1 (stereo not shown) [Example I-64, 1-(7-{8-[6-(2-Methyl-pyrrolidin-1-yl)-pyridin-2-ylamino]-imidazo[1,2-b]pyridazin-6-yl}-3,4-dihydro-1H-isoquinolin-2-yl)-ethanone] | 0.0566 µM |
| CC1CCCN1c1cccc(Nc2cc(-c3ccc(O)cc3)nn3ccnc23)n1 (stereo not shown) [Example I-77, 4-{8-[6-(2-Methyl-pyrrolidin-1-yl)-pyridin-2-ylamino]-imidazo[1,2-b]pyridazin-6-yl}-phenol] | 0.0639 µM |
| CCc1ccc(Nc2cc(-c3ccccc3)nn3ccnc23)nc1 [Example I-2, (5-Ethyl-pyridin-2-yl)-(6-phenyl-imidazo[1,2-b]pyridazin-8-yl)-amine] | 0.186 µM |
| CC1CCN(c2cccc(Nc3cc(-c4ccccc4)nn4ccnc34)n2)C1 (stereo not shown) [Example I-25, [6-(3-Methyl-pyrrolidin-1-yl)-pyridin-2-yl]-(6-phenyl-imidazo[1,2-b]pyridazin-8-yl)-amine] | 0.0885 µM |
| CC1(C)CCN(c2cccc(Nc3cc(-c4cccc(C(=O)O)c4)nn4ccnc34)n2)CC1 [Example I-61, 3-[8-(4,4-Dimethyl-3,4,5,6-tetrahydro-2H-[1,2′]bipyridinyl-6′-ylamino)-imidazo[1,2-b]pyridazin-6-yl]-benzoic acid] | 1.38 µM |
| CC1CC(C)CN(c2cccc(Nc3cc(-c4cccc(C(=O)O)c4)nn4ccnc34)n2)C1 (stereo not shown) [Example I-38, 3-[8-(3,5-Dimethyl-3,4,5,6-tetrahydro-2H-[1,2′]bipyridinyl-6′-ylamino)-imidazo[1,2-b]pyridazin-6-yl]-benzoic acid] | 0.904 µM |
| COC(=O)c1ccc(-c2cc(Nc3cccc(N4CCCC4C)n3)c3nccn3n2)cc1 (stereo not shown) [Example I-14, 4-{8-[6-(2-Methyl-pyrrolidin-1-yl)-pyridin-2-ylamino]-imidazo[1,2-b]pyridazin-6-yl}-benzoic acid methyl ester] | 0.369 µM |
| CC1CCCN1c1cccc(Nc2cc(-c3cccc(C(=O)N4CCOCC4)c3)nn3ccnc23)n1 (stereo not shown) [Example I-42, (3-{8-[6-(2-Methyl-pyrrolidin-1-yl)-pyridin-2-ylamino]-imidazo[1,2-b]pyridazin-6-yl}-phenyl)-morpholin-4-yl-methanone] | 0.219 µM |
| COC(=O)c1cccc(-c2cc(Nc3cccc(N4CCCC4C)n3)c3nccn3n2)c1 (stereo not shown) [Example I-8, 3-{8-[6-(2-Methyl-pyrrolidin-1-yl)-pyridin-2-ylamino]-imidazo[1,2-b]pyridazin-6-yl}-benzoic acid methyl ester] | 0.478 µM |
| COc1cncc(-c2cc(Nc3cccc(N4CCCC4C)n3)c3nccn3n2)c1 (stereo not shown) [Example I-82, [6-(5-Methoxy-pyridin-3-yl)-imidazo[1,2-b]pyridazin-8-yl]-[6-(2-methyl-pyrrolidin-1-yl)-pyridin-2-yl]-amine] | 0.0599 µM |
| COc1cc(NC(=O)c2cccc(-c3cc(Nc4ccc(OC)c(OC)n4)c4nccn4n3)c2)ccc1C(=O)O [Example I-57, 4-{3-[8-(5,6-Dimethoxy-pyridin-2-ylamino)-imidazo[1,2-b]pyridazin-6-yl]-benzoylamino}-2-methoxy-benzoic acid] | 0.00155 µM |
| CC1CCCN1c1cccc(Nc2cc(-c3ccc4c(c3)OCO4)nn3ccnc23)n1 (stereo not shown) [Example I-18, (6-Benzo[1,3]dioxol-5-yl-imidazo[1,2-b]pyridazin-8-yl)-[6-(2-methyl-pyrrolidin-1-yl)-pyridin-2-yl]-amine] | 0.115 µM |
| COc1ccc(Nc2cc(-c3ccccc3)nn3ccnc23)nc1OC [Example I-44, (5,6-Dimethoxy-pyridin-2-yl)-(6-phenyl-imidazo[1,2-b]pyridazin-8-yl)-amine] | 0.0476 µM |
| COc1ccc(Nc2cc(N3CCC(C(=O)Nc4ccc(C(=O)O)cc4)C3)nn3ccnc23)nc1OC (stereo not shown) [Example I-75, 4-({1-[8-(5,6-Dimethoxy-pyridin-2-ylamino)-imidazo[1,2-b]pyridazin-6-yl]-pyrrolidine-3-carbonyl}-amino)-benzoic acid] | 0.461 µM |
| C[C@H]1CCCN1c1cccc(Nc2cc(-c3ccc4ncsc4c3)nn3ccnc23)n1 [Example I-52, (6-Benzothiazol-6-yl-imidazo[1,2-b]pyridazin-8-yl)-[6-((S)-2-methyl-pyrrolidin-1-yl)-pyridin-2-yl]-amine] | 0.0362 µM |
| COc1ccc(Nc2cc(-c3cccc(C(=O)O)c3)nn3ccnc23)nc1OC [Example I-95, 3-[8-(5,6-Dimethoxy-pyridin-2-ylamino)-imidazo[1,2-b]pyridazin-6-yl]-benzoic acid] | 0.949 µM |
| COc1ccc(Nc2cc(-c3ccc(C(=O)NCCc4ccn(C)c(=O)c4)cc3)nn3ccnc23)nc1OC [Example I-33, 4-[8-(5,6-Dimethoxy-pyridin-2-ylamino)-imidazo[1,2-b]pyridazin-6-yl]-N-[2-(1-methyl-2-oxo-1,2-dihydro-pyridin-4-yl)-ethyl]-benzamide] | 0.079 µM |
| COC(=O)c1cccc(-c2cc(Nc3cccc(N4CCC(C(C)(C)C)C4)n3)c3nccn3n2)c1 (stereo not shown) [Example I-65, 3-{8-[6-(3-tert-Butyl-pyrrolidin-1-yl)-pyridin-2-ylamino]-imidazo[1,2-b]pyridazin-6-yl}-benzoic acid methyl ester] | 1.26 µM |
| CC1CCCN1c1cccc(Nc2cc(-c3ccc(C(=O)NCCc4ccncc4)cc3)nn3ccnc23)n1 (stereo not shown) [Example I-16, 4-{8-[6-(2-Methyl-pyrrolidin-1-yl)-pyridin-2-ylamino]-imidazo[1,2-b]pyridazin-6-yl}-N-(2-pyridin-4-yl-ethyl)-benzamide] | 0.0876 µM |
| CC1CCCN1c1cccc(Nc2cc(-c3ccc(OCCN4CCOCC4)cc3)nn3ccnc23)n1 (stereo not shown) [Example I-90, [6-(2-Methyl-pyrrolidin-1-yl)-pyridin-2-yl]-{6-[4-(2-morpholin-4-yl-ethoxy)-phenyl]-imidazo[1,2-b]pyridazin-8-yl}-amine] | 0.157 µM |
| CC1CCCN1c1cccc(Nc2cc(-c3ccc4cn[nH]c4c3)nn3ccnc23)n1 (stereo not shown) [Example I-19, [6-(1H-Indazol-6-yl)-imidazo[1,2-b]pyridazin-8-yl]-[6-(2-methyl-pyrrolidin-1-yl)-pyridin-2-yl]-amine] | 0.075 µM |
